# Test results as given in US9840510B1, “Pyrazolo[1,5-a]pyrimidinyl carboxamide compounds and their use in the treatment of medical disorders” (Lysosomal Therapeutics Inc., priority 2016, dated 2017).
# Experiment: Compound solubility in water
# Assay type: physicochemical
row,Structure (SMILES),solubility
1,Cc1cc(-c2ccc(Cl)cn2)nc2c(C(=O)NC(C3CC3)C(F)(F)F)cnn12 (stereo not shown) [III-208],0.04 µg/mL
2,Cc1cc(-c2ccns2)nc2c(C(=O)N[C@@H](C3CC3)C(F)(F)F)cnn12 [III-101],1.3 µg/mL
3,COc1ccc(F)c(-c2cc(C)n3ncc(C(=O)N[C@@H](C)C(F)(F)F)c3n2)c1 [III-98],0.3 µg/mL
4,Cc1cc(-c2ccc3ncn(C)c3c2)nc2c(C(=O)NC(C3CC3)C(F)(F)F)cnn12 (stereo not shown) [III-304],0.4 µg/mL
5,Cc1cc(-c2cc(F)c3c(c2)OCO3)nc2c(C(=O)NC(C)C(F)(F)F)cnn12 (stereo not shown) [III-294],0.6 µg/mL
6,Cc1cc(-c2ccc(F)cn2)nc2c(C(=O)NC(C3CC3)C(F)(F)F)cnn12 (stereo not shown) [III-204],0.1 µg/mL
7,COCCOc1ccc(-c2cc(C)n3ncc(C(=O)NC(C)C(F)(F)F)c3n2)cc1F (stereo not shown) [III-298],1.5 µg/mL
8,Cc1cc(N2CCCCC2)n2ncc(C(=O)N[C@@H](C)C3CC3)c2n1 [III-30],4.7 µg/mL
9,Cc1cc(N2CCC(F)(F)CC2)nc2c(C(=O)NC(C)C3CC3)cnn12 (stereo not shown) [III-60],4.4 µg/mL
10,Cc1cc(-c2ccccn2)nc2c(C(=O)NC(C)C(F)(F)F)cnn12 (stereo not shown) [III-50],1.6 µg/mL
11,Cc1cc(-c2cccc(Cl)c2)nc2c(C(=O)NC(C)C(F)(F)F)cnn12 (stereo not shown) [III-64],6.2 µg/mL
12,Cc1cc(-c2cccnc2)nc2c(C(=O)N[C@H](C3CC3)C(F)(F)F)cnn12 [III-88],14.8 µg/mL
13,Cc1coc(-c2cc(C)n3ncc(C(=O)N[C@H](C4CC4)C(F)(F)F)c3n2)n1 [III-255],1.6 µg/mL
14,COc1ccc(-c2cc(C)n3ncc(C(=O)N[C@H](C)C(F)(F)F)c3n2)cn1 [III-272],3.1 µg/mL
15,Cc1cc(-c2cccc3ncoc23)nc2c(C(=O)N[C@@H](C)C3CC3)cnn12 [III-217],3.2 µg/mL
16,Cc1cc(N2CCOCC2)nc2c(C(=O)NC(C)(C)C3CC3)cnn12 [III-59],10.3 µg/mL
17,Cc1cc(-c2cncc(Cl)c2)nc2c(C(=O)N[C@@H](C)C3CC3)cnn12 [III-290],2.1 µg/mL

row,Structure (SMILES),solubility
1,COc1ccc(F)c(-c2cc(C)n3ncc(C(=O)NC(C)C(F)(F)F)c3n2)c1 (stereo not shown) [III-409],0.9 µg/mL
2,C#CC(C)(C)NC(=O)c1cnn2c(C)cc(-c3ccns3)nc12 [III-412],3.7 µg/mL
3,CCCO[C@H]1CC[C@H](NC(=O)c2cnn3c(C)cc(-c4cccnc4)nc23)CC1 [III-40],20 µg/mL
4,Cc1cc(-c2ccc(F)c(C(N)=O)c2)nc2c(C(=O)N[C@@H](C)C3CC3)cnn12 [III-160],1.1 µg/mL
5,Cc1cc(-c2cccnc2)nc2c(C(=O)NC(C)C(F)(F)F)cnn12 (stereo not shown) [III-43],12.1 µg/mL
6,Cc1cc(-c2ccc(F)cc2)nc2c(C(=O)N[C@@H](C)C3CC3)cnn12 [III-7],1.6 µg/mL
7,Cc1cc(-c2cncc(Cl)c2)nc2c(C(=O)N[C@H](C)C(F)(F)F)cnn12 [III-201],3.1 µg/mL
8,Cc1cc(N2CCCCC2)n2ncc(C(=O)NC(C)(C)C3CC3)c2n1 [III-22],0.5 µg/mL
9,Cc1cc(-c2cccnc2)nc2c(C(=O)N[C@H]3CC[C@H](OCC(C)C)CC3)cnn12 [III-39],4.4 µg/mL
10,Cc1cc(-c2cccc3ncn(C)c23)nc2c(C(=O)NC(C3CC3)C(F)(F)F)cnn12 (stereo not shown) [III-309],31.4 µg/mL
11,Cc1oc(C#N)cc1-c1cc(C)n2ncc(C(=O)NC(C3CC3)C(F)(F)F)c2n1 (stereo not shown) [III-242],3.2 µg/mL
12,Cc1nc2cc(-c3cc(C)n4ncc(C(=O)N[C@@H](C)C5CC5)c4n3)ccc2o1 [III-321],1.9 µg/mL
13,Cc1cc(-c2ccns2)nc2c(C(=O)N[C@@H](C)C3CC3)cnn12 [III-197],6.5 µg/mL
14,Cc1cc(-c2cccc(C#N)c2)nc2c(C(=O)N[C@@H](C)C3CC3)cnn12 [III-70],2.1 µg/mL
15,COc1ccc(F)cc1-c1cc(C)n2ncc(C(=O)N[C@H](C)C(F)(F)F)c2n1 [III-195],0.01 µg/mL
16,Cc1cc(-c2cccc3ocnc23)nc2c(C(=O)NC(C3CC3)C(F)(F)F)cnn12 (stereo not shown) [III-106],0.1 µg/mL
17,COc1c(C#N)cccc1-c1cc(C)n2ncc(C(=O)N[C@@H](C)C3CC3)c2n1 [III-143],17.4 µg/mL
